Source: the supplement of paper PMC10307832

Assays:
Assay in all cases: relative viability (nuclei count vs DMSO), 5 days (fraction); higher = more cells survive
Erlotinib + Linsitinib = compound: C#Cc1cccc(Nc2ncnc3cc(OCCOC)c(OCCOC)cc23)c1 [Erlotinib] + C[C@]1(O)C[C@@H](c2nc(-c3ccc4ccc(-c5ccccc5)nc4c3)c3c(N)nccn32)C1 [Linsitinib] (partner 1 µM)
Summary of the method: (§1)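 Lung cancer cell lines in 1536-well plates got either a single drug or a fixed anchor-drug dose together with five library-drug doses (not always all listed) in √10 steps, by pin tool, on the day after seeding. Nuclei were counted after 5 days, and relative viability is the treated-to-vehicle ratio of nuclei counts. Values are medians of duplicate plates.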

Erlotinib + Dasatinib = compound: C#Cc1cccc(Nc2ncnc3cc(OCCOC)c(OCCOC)cc23)c1 [Erlotinib] + Cc1nc(Nc2ncc(C(=O)Nc3c(C)cccc3Cl)s2)cc(N2CCN(CCO)CC2)n1 [Dasatinib] (partner 0.075 µM)
Summary of the method: as §1

AT9283 + Navitoclax = compound: O=C(Nc1c[nH]nc1-c1nc2ccc(CN3CCOCC3)cc2[nH]1)NC1CC1 [AT9283] + CC1(C)CCC(c2ccc(Cl)cc2)=C(CN2CCN(c3ccc(C(=O)NS(=O)(=O)c4ccc(N[C@H](CCN5CCOCC5)CSc5ccccc5)c(S(=O)(=O)C(F)(F)F)c4)cc3)CC2)C1 [Navitoclax] (partner 0.5 µM)
Summary of the method: as §1

AT9283 + Alpelisib = compound: O=C(Nc1c[nH]nc1-c1nc2ccc(CN3CCOCC3)cc2[nH]1)NC1CC1 [AT9283] + Cc1nc(NC(=O)N2CCC[C@H]2C(N)=O)sc1-c1ccnc(C(C)(C)C(F)(F)F)c1 [Alpelisib] (partner 2 µM)
Summary of the method: as §1

AT9283 + Vorinostat = compound: O=C(Nc1c[nH]nc1-c1nc2ccc(CN3CCOCC3)cc2[nH]1)NC1CC1 [AT9283] + O=C(CCCCCCC(=O)Nc1ccccc1)NO [Vorinostat] (partner 1 µM)
Summary of the method: as §1

Cell Line	relative viability (Erlotinib + Linsitinib; first compound 0.02 µM)	relative viability (Erlotinib + Linsitinib; first compound 0.2 µM)	relative viability (Erlotinib + Linsitinib; first compound 0.6325 µM)	relative viability (Erlotinib + Linsitinib; first compound 2 µM)	relative viability (Erlotinib + Dasatinib; first compound 0.02 µM)	relative viability (Erlotinib + Dasatinib; first compound 0.2 µM)	relative viability (Erlotinib + Dasatinib; first compound 0.6325 µM)	relative viability (Erlotinib + Dasatinib; first compound 2 µM)	relative viability (AT9283 + Navitoclax; first compound 0.003 µM)	relative viability (AT9283 + Navitoclax; first compound 0.03 µM)	relative viability (AT9283 + Navitoclax; first compound 0.09487 µM)	relative viability (AT9283 + Navitoclax; first compound 0.3 µM)	relative viability (AT9283 + Alpelisib; first compound 0.003 µM)	relative viability (AT9283 + Alpelisib; first compound 0.03 µM)	relative viability (AT9283 + Alpelisib; first compound 0.09487 µM)	relative viability (AT9283 + Alpelisib; first compound 0.3 µM)	relative viability (AT9283 + Vorinostat; first compound 0.003 µM)	relative viability (AT9283 + Vorinostat; first compound 0.03 µM)	relative viability (AT9283 + Vorinostat; first compound 0.09487 µM)	relative viability (AT9283 + Vorinostat; first compound 0.3 µM)
BEN	0.96	0.893	1.16	0.891	0.318	0.381	0.413	0.3	0.0788	0.0854	0.0605	0.0596	0.969	0.987	0.23	0.245	0.515	0.49	0.33	0.324
SW 1573	0.81	0.724	0.797	0.853	0.764	–	0.463	0.41	0.868	0.508	0.117	0.117	0.766	0.441	0.226	0.249	0.835	0.211	0.165	0.133
NCI-H1975	0.954	0.974	0.991	–	0.391	0.407	0.372	0.205	1.11	1.18	0.971	0.282	0.637	0.624	0.5	0.247	0.742	0.666	0.504	0.281
LXF-289	0.966	0.921	0.934	0.874	0.295	0.274	0.239	0.183	0.93	0.665	0.123	0.133	0.964	1.01	0.132	0.105	0.751	0.56	0.224	0.168
NCI-H1993	0.763	–	0.728	0.85	0.579	0.531	0.553	0.586	0.872	0.905	0.586	0.466	0.789	0.612	0.552	0.515	0.806	0.435	0.375	0.363
NCI-H23	0.643	0.506	0.752	0.604	0.876	–	0.928	0.698	0.741	0.538	0.423	0.174	0.707	0.668	0.396	0.168	0.523	0.363	0.183	0.177
SK-MES-1	1.09	0.767	0.537	0.434	0.338	0.175	0.177	0.156	1.24	1.11	0.336	0.147	0.807	0.859	0.509	0.173	1.19	1.03	0.304	0.154
NCI-H2023	0.721	0.574	0.428	0.496	0.639	0.408	0.623	0.44	1.04	0.71	0.383	0.119	0.634	0.501	0.34	0.131	0.527	0.344	0.149	0.144
CAL-12T	0.804	0.654	0.5	0.368	0.632	0.307	0.266	0.15	1.47	0.879	0.261	0.21	1.27	0.956	0.362	0.296	0.804	0.394	0.237	0.166
LCLC-97TM1	0.212	–	0.196	0.196	0.749	0.794	0.967	0.782	0.335	0.117	0.107	0.144	0.198	0.151	0.11	0.111	0.734	0.15	0.128	0.0905
NCI-H322M	0.8	0.727	0.512	0.337	0.231	0.246	0.257	0.238	1.27	0.802	0.731	0.436	0.846	0.906	0.544	0.396	0.87	0.579	0.497	0.407
NCI-H1734	0.946	0.849	0.966	0.776	0.574	0.482	0.473	0.428	0.839	0.318	0.131	0.127	0.696	0.497	0.283	0.292	0.757	0.305	0.259	0.237
HCC-366	0.752	0.52	0.574	0.564	0.61	0.606	0.637	0.522	1.1	0.842	0.191	0.0248	0.48	0.17	0.122	0.0346	0.292	0.2	0.0353	0.0463
NCI-H1437	1.05	0.941	0.83	0.526	0.357	0.433	0.46	0.339	1.17	0.832	0.265	0.178	0.997	0.88	0.571	0.155	0.833	0.469	0.312	0.295
NCI-H1651	0.967	0.996	1.07	0.842	0.37	0.39	0.469	0.387	1.09	0.956	0.489	0.231	1.01	0.921	0.689	0.399	0.449	0.39	0.393	0.218
NCI-H727	0.284	0.349	0.282	0.232	0.308	–	0.295	0.322	0.532	0.235	0.154	0.11	0.669	0.434	0.313	0.235	1.07	0.866	0.815	0.499
HCC-78	0.5	0.439	0.401	0.383	0.319	0.36	0.364	0.225	0.721	0.511	0.169	0.145	0.286	0.275	0.165	0.18	0.384	0.385	0.258	0.229
RERF-LC-KJ	0.914	0.837	0.736	0.565	0.89	0.658	0.662	0.583	0.834	0.554	0.223	0.217	0.808	0.738	0.441	0.251	0.636	0.473	0.346	0.264
NCI-H1944	1.17	–	0.776	0.642	0.213	0.219	0.237	0.21	1.03	0.865	0.652	0.235	0.792	0.621	0.255	0.275	0.532	0.274	0.214	0.205
HOP-62	1.14	0.959	1.01	0.912	0.695	0.583	–	0.567	1.07	0.857	0.088	0.106	1.11	0.991	0.207	0.219	0.637	0.262	0.183	0.186
NCI-H2228	0.515	0.75	0.557	0.514	0.625	0.492	0.5	0.368	0.93	0.774	0.51	0.144	0.831	0.676	0.176	0.136	0.655	0.277	0.133	0.103
NCI-H1755	1.05	–	0.955	0.976	0.451	0.409	0.386	0.433	0.988	0.876	0.482	0.281	0.996	0.874	0.35	0.381	0.74	0.784	0.54	0.398
NCI-H2126	–	0.597	0.548	0.419	0.595	0.435	0.444	0.374	0.871	0.892	0.634	0.319	0.722	0.788	0.501	0.323	0.729	0.552	0.486	0.249
NCI-H520	0.98	0.915	1.03	0.965	0.188	0.186	0.245	0.234	1.17	0.34	0.236	0.23	1.01	0.338	0.274	0.239	0.56	0.271	0.223	0.235
NCI-H1793	0.785	0.397	0.767	0.651	0.342	0.249	0.392	0.272	0.533	0.429	0.231	0.164	0.642	0.871	0.363	0.254	0.709	0.349	0.278	0.281
A-427	1.15	1.1	1.12	1.12	0.832	0.687	0.842	0.676	1.05	0.691	0.174	0.167	1.04	1.01	0.209	0.176	0.902	0.471	0.269	0.323
